Measurements reported in the supplement of paper PMC10307832.

Key:
Assay in all cases: relative viability (nuclei count vs DMSO), 5 days (fraction); higher = more cells survive
[1] = test system: A549
Outline: (§1)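 The day after seeding in 1536-well plates, lung cancer cell lines were treated by pin tool with a single drug, or with a fixed anchor-drug dose together with five library-drug doses (not always all listed) in √10 steps. After 5 days, a combined fix-and-stain solution (final 0.05% Triton X-100, 1% formaldehyde, 1 ug/ml Hoechst) was added. Nuclei counted on 4× images gave relative viability as treated counts over vehicle counts, reported as the median of duplicate plates.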

[2] = test system: ABC-1
Outline: as §1

[3] = test system: EKVX
Outline: as §1

[4] = test system: NCI-H1623
Outline: as §1

[5] = test system: NCI-H2126
Outline: as §1

[6] = test system: NCI-H522
Outline: as §1

[7] = test system: Calu-6
Outline: as §1

[8] = test system: EBC-1
Outline: as §1

[9] = test system: IA-LM
Outline: as §1

[10] = test system: NCI-H1299
Outline: as §1

[11] = test system: NCI-H1703
Outline: as §1

For `NC(=O)Nc1cc(-c2cccc(F)c2)sc1C(=O)N[C@H]1CCCNC1` [AZD7762] + N=C(N)NC(=N)NCCc1ccccc1 [Phenformin] (partner 250 µM), which relative viability ([1]; first compound 0.01 µM) is on record?
Its relative viability is 0.167.

And the relative viability ([1]; first compound 0.03162 µM)?
The relative viability was 0.183.

And the relative viability ([1]; first compound 0.1 µM)?
Its relative viability is 0.187.

What about the relative viability ([1]; first compound 0.3162 µM) of the same molecule?
Its relative viability is 0.188.

And the relative viability ([1]; first compound 1 µM)?
The relative viability was 0.184.

What about the relative viability ([2]; first compound 0.01 µM) of the same molecule?
The relative viability was 0.273.

And the relative viability ([2]; first compound 0.03162 µM)?
The relative viability was 0.249.

What about the relative viability ([2]; first compound 0.1 µM) of the same molecule?
Its relative viability is 0.268.

And the relative viability ([2]; first compound 0.3162 µM)?
The relative viability was 0.203.

What about the relative viability ([2]; first compound 1 µM) of the same molecule?
Its relative viability is 0.19.

What about the relative viability ([3]; first compound 0.01 µM) of the same molecule?
The relative viability was 0.194.

And the relative viability ([3]; first compound 0.03162 µM)?
The relative viability was 0.244.

And the relative viability ([3]; first compound 0.1 µM)?
Its relative viability is 0.245.

And the relative viability ([3]; first compound 0.3162 µM)?
Its relative viability is 0.229.

And the relative viability ([3]; first compound 1 µM)?
The relative viability was 0.206.

What about the relative viability ([4]; first compound 0.01 µM) of the same molecule?
The relative viability was 0.557.

What about the relative viability ([4]; first compound 0.03162 µM) of the same molecule?
Its relative viability is 0.606.

And the relative viability ([4]; first compound 0.1 µM)?
Its relative viability is 0.594.

And the relative viability ([4]; first compound 0.3162 µM)?
The relative viability was 0.632.

And the relative viability ([4]; first compound 1 µM)?
Its relative viability is 0.497.

What about the relative viability ([5]; first compound 0.01 µM) of the same molecule?
Its relative viability is 0.513.

And the relative viability ([5]; first compound 0.03162 µM)?
The relative viability was 0.593.

And the relative viability ([5]; first compound 0.1 µM)?
The relative viability was 0.545.

What about the relative viability ([5]; first compound 0.3162 µM) of the same molecule?
The relative viability was 0.536.

And the relative viability ([5]; first compound 1 µM)?
Its relative viability is 0.462.

And the relative viability ([6]; first compound 0.01 µM)?
The relative viability was 0.668.

What about the relative viability ([6]; first compound 0.03162 µM) of the same molecule?
The relative viability was 0.711.

And the relative viability ([6]; first compound 0.1 µM)?
Its relative viability is 0.635.

And the relative viability ([6]; first compound 0.3162 µM)?
Its relative viability is 0.752.

What about the relative viability ([6]; first compound 1 µM) of the same molecule?
The relative viability was 0.597.

Which results are given for `C=C1C(=O)O[C@@H](CCCCCCCC)[C@@H]1C(=O)O` [C-75] + COc1cc2c(Oc3ccc(NC(=O)C4(C(=O)Nc5ccc(F)cc5)CC4)cc3F)ccnc2cc1OCCCN1CCOCC1 [Foretinib] (partner 0.25 µM)?
relative viability ([1]; first compound 0.08 µM): 0.946; relative viability ([1]; first compound 0.253 µM): 0.977; relative viability ([1]; first compound 0.8 µM): 1.01; relative viability ([1]; first compound 8 µM): 0.869; relative viability ([2]; first compound 0.08 µM): 1.16; relative viability ([2]; first compound 0.253 µM): 1.24; relative viability ([2]; first compound 0.8 µM): 0.913; relative viability ([2]; first compound 2.53 µM): 1.18; relative viability ([2]; first compound 8 µM): 0.81; relative viability ([7]; first compound 0.08 µM): 0.875; relative viability ([7]; first compound 0.253 µM): 0.914; relative viability ([7]; first compound 0.8 µM): 0.81; relative viability ([7]; first compound 2.53 µM): 0.634; relative viability ([7]; first compound 8 µM): 0.907; relative viability ([8]; first compound 0.08 µM): 0.101; relative viability ([8]; first compound 0.253 µM): 0.11; relative viability ([8]; first compound 0.8 µM): 0.107; relative viability ([8]; first compound 8 µM): 0.0983; relative viability ([3]; first compound 0.08 µM): 0.644; relative viability ([3]; first compound 0.253 µM): 0.925; relative viability ([3]; first compound 0.8 µM): 0.782; relative viability ([3]; first compound 8 µM): 1.06; relative viability ([9]; first compound 0.08 µM): 1.14; relative viability ([9]; first compound 0.253 µM): 1.38; relative viability ([9]; first compound 0.8 µM): 1.02; relative viability ([9]; first compound 2.53 µM): 1.25; relative viability ([9]; first compound 8 µM): 1.01; relative viability ([10]; first compound 0.08 µM): 1.12; relative viability ([10]; first compound 0.253 µM): 1.03; relative viability ([10]; first compound 0.8 µM): 1.04; relative viability ([10]; first compound 2.53 µM): 1.04; relative viability ([10]; first compound 8 µM): 1.11; relative viability ([4]; first compound 0.08 µM): 0.861; relative viability ([4]; first compound 0.253 µM): 1.09; relative viability ([4]; first compound 0.8 µM): 0.747; relative viability ([4]; first compound 2.53 µM): 0.686; relative viability ([4]; first compound 8 µM): 0.993; relative viability ([11]; first compound 0.08 µM): 0.399; relative viability ([11]; first compound 0.253 µM): 0.334; relative viability ([11]; first compound 0.8 µM): 0.325; relative viability ([11]; first compound 2.53 µM): 0.355; relative viability ([11]; first compound 8 µM): 0.388; relative viability ([5]; first compound 0.08 µM): 1.1; relative viability ([5]; first compound 0.253 µM): 1.27; relative viability ([5]; first compound 0.8 µM): 1.2; relative viability ([5]; first compound 2.53 µM): 1.08; relative viability ([5]; first compound 8 µM): 1.07
